Consider 87 compounds from PubChem BioAssay AID2305 (GlaxoSmithKline (GSK), 2010).

The test system of this experiment is P. falciparum 3D7 growth, pLDH absorbance. Put plainly: P. falciparum 3D7 growth inhibition, dose response, strain 3D7 (AID 2305).

Usually IC50 stands for the point on the concentration scale where inhibition reaches its midpoint. `COc1cc(Nc2ccnc3ccc(C(C)(C)C)cc23)cc(OC)c1OC` registered an IC50 of 610 nM.
Compound `O=C(Nc1cccc(CN2CCCN(CC3CCCCC3)CC2)c1)c1cc2ccccc2s1` came in with an IC50 of 810 nM.
For `COc1ccc2nc3cc(Cl)ccc3c(Nc3ccc(Oc4ccc(Nc5c6ccc(Cl)cc6nc6ccc(OC)cc56)cc4)cc3)c2c1`, the IC50 came to 860 nM.
As to `CN(C)CCN(Cc1ccccc1-c1ccc(CNCCc2ccccc2)cc1)C(=O)c1ccccc1`, the IC50 amounted to 1700 nM.
`Cc1c(-c2ccccc2)ccc2[nH]cc(CC#N)c12` displayed an IC50 of 700 nM.
Compound `COCCOC(=O)C(=O)c1c(-c2ccccc2)c(-c2ccc(OC)c(OC)c2)c2c3cc(OC)c(OC)cc3ccn12` gave a concentration for half-maximal inhibition (IC50) of 500 nM.
For `CCCCCCN=C(N)c1ccc(OCCCCCOc2ccc(C(N)=NCCCCCC)cc2)cc1` the value was 310 nM; for `O=C(Nc1ccc2c(c1)CCN2C1CCN(Cc2ccc(C(F)(F)F)cc2F)C1)c1ccco1` (configuration not stated), 510 nM; for `COc1ccc2nc(C)cc(NCc3cccc4ccccc34)c2c1`, 220 nM.
Compound `CCc1c(CCNCCCCCCNCCc2ccc3c(c2C)OCO3)ccc2c1OCO2` registered an IC50 of 610 nM.
With `NC(=O)c1cccc(CN2Cc3ccccc3OC3(CCN(Cc4c[nH]c5cnccc45)CC3)C2)c1`, the IC50 was 1060 nM.
Regarding `CN(C)CCOc1ccc(-c2cc(-c3ccncc3)c(-c3ccc(Cl)c(O)c3)o2)cc1`, the IC50 amounted to 210 nM.
In turn, `CC(C)(CNC(=O)[C@@H]1CCCN(CCOc2ccc(Cl)cc2)C1)c1nc(-c2ccc(Cl)c(O)c2)c(-c2ccncc2)[nH]1` gave a half-maximal inhibitory concentration (IC50) of 880 nM.
`C[C@H](Cc1ccc(C[C@@H](C)NC[C@H](O)c2cccc(Cl)c2)cc1)NC[C@H](O)COc1ccccc1` yielded an IC50 of 1170 nM.
Consider `CS(=O)(=O)c1cccc(-c2cnc(N)c3cc(-c4cccc(F)c4)ccc23)c1`, for which the half-inhibitory concentration (IC50) worked out at 860 nM.
For the compound `N#CCCN1CCN(Cc2cccc(-c3ccc(-c4nc5ccccc5[nH]4)cc3)c2)CC1`, the IC50 stood at 1020 nM.
For `Cc1ccnc(NC(c2cccc(OCc3ccccc3)c2)c2ccc3cccnc3c2O)c1` (configuration not stated) the value was 860 nM; for `CCN(CC)CCN(CCCc1ccc(-c2ccc(C(F)(F)F)cc2)cc1)C(=O)Cn1c(CCc2cccc(F)c2F)nc(=O)c2ccccc21`, 770 nM; for `Cc1cc(N(C)C)nc(Nc2ccc(NC(=O)C(C)Oc3ccccc3)cc2)n1` (configuration not stated), 950 nM.
`COc1cccc(CCc2cccc(CNC(C)=O)c2)c1` showed an IC50 of 1040 nM.
For `COc1ccc2nccc([C@@H](O)CN3CCC(NCc4cc5cccc6c5n(c4=O)CCC6)CC3)c2c1` the value was 860 nM.
The same measure for `COc1ccc(CN2CCC2=O)c(OC)c1`: 120 nM; for `O=C(Nc1cccc(-c2cccc(-c3nc4ccc(C(F)(F)F)cc4[nH]3)c2)c1)c1ccc(=O)[nH]n1`: 660 nM; for `Cc1cccc2[nH]c(-c3cccc(-c4cccc(NC(=O)c5cnccc5C(F)(F)F)c4)c3)nc12`: 660 nM.
Take `Cc1cc(NC(=O)[C@H](CC2CCCCC2)Nc2ccc(C#N)c3ccccc23)ccc1F`: the IC50 worked out at 680 nM.
The same measure for `COc1cccc(C(=O)[C@H]2C[C@@H]2CN2CC=C(c3c[nH]c4cccc(Br)c34)CC2)c1`: 750 nM.
The same measure for `O=c1cc(NCCCNCc2cccc(SC(F)(F)F)c2)[nH]c2ccccc12`: 720 nM; for `CC(C)CCn1c(Sc2ccc(C#N)c([N+](=O)[O-])c2)nnc1-c1ccccc1Cl`: 1030 nM.
`CS(=O)(=O)c1ccc(OCCCN(Cc2ccccc2C(F)(F)F)c2ccc(C#N)c(C(F)(F)F)c2)cc1` came in with an IC50 of 1020 nM.
For `O=C(NCCOc1ccccc1)[C@H](Cc1ccccc1)Nc1ccnc(NCC2CCCCC2)n1`, the IC50 amounted to 1200 nM.
Turning to `OCCN1CCN(Cc2cccc(-c3ccc(-c4nc5ccc(C(F)(F)F)cc5[nH]4)cc3)c2)CC1`, the IC50 turned out to be 560 nM.
In the case of `Nc1ccc2[nH]cc(C3CCN(CC4CCC(NC(=O)/C=C/c5ccccc5Cl)CC4)CC3)c2n1` (configuration not stated), the IC50 is 690 nM.
In the case of `CN(CCCc1c[nH]c2ccccc12)CCC1CCC(NC(=O)/C=C/c2ccc(Cl)c(Cl)c2)CC1` (configuration not stated), the IC50 was 650 nM.
Consider `COc1ccc(OCCON)cc1`, for which the IC50 turned out to be 200 nM.
For `CCCCCCNC(=O)C1Cc2c([nH]c3ccccc23)C2(CCN(CCc3ccccc3)CC2)N1` (configuration not stated) the value was 1140 nM; for `CCc1cn2c3c(cc(C(=O)N[C@@H](Cc4ccccc4)[C@H](O)CNCc4ccc(C)cc4)cc13)N(C)S(=O)(=O)CC2`, 550 nM.
`CN1CCN(CCCN(Cc2cccc(-c3cccc(CNCCc4ccccc4)c3)c2)C(=O)Nc2ccccc2)CC1`: the IC50 came to 580 nM.
For the compound `CC1CCCN(C(=O)C(C)Nc2cc(Cl)ccc2N2CCOCC2)C1` (configuration not stated), the IC50 is 320 nM.
Take `CN1CCCC1CCNCc1cccc(-c2cnc(N3CCCC(C)(C)C3)nc2)c1` (configuration not stated): the IC50 is 930 nM.
In turn, `O=C(Nc1ccnc2ccccc12)NC1CCN(CCc2ccccc2)CC1` had an IC50 of 360 nM.
The same measure for `Cc1cc(-c2cccc3c(NC(=O)N4CCc5cc6nccc(N7CCN8CCC[C@H]8C7)c6cc54)cccc23)cc(C)n1`: 490 nM; for `CCOc1cc(C)ccc1C1CCN(CCCCNC(=O)c2ccc(NC(=O)c3cc(Cl)cc(Cl)c3)cc2)CC1`: 360 nM; for `Brc1cccc(Nc2nccc(Nc3ccc(Oc4ccccc4)cc3)n2)c1`: 1010 nM.
`COc1ccccc1-c1ccc(C(=O)NCC2CCCN(Cc3cccc(C(F)(F)F)c3)C2)s1` (configuration not stated) registered an IC50 of 1540 nM.
With `O=C(Nc1nc(-c2cc(F)ccc2F)cs1)c1cncc(Br)c1`, the IC50 is 1080 nM.
Consider `COc1ccc(NC(=O)Nc2ccc(-c3ccccc3)cc2)cc1Cn1nc(Cl)c(N2CCCNCC2)cc1=O`, for which the IC50 was determined as 360 nM.
For the compound `O=C(Nc1ccc(Cl)cc1)Nc1ccc2nonc2c1`, the IC50 was determined as 1100 nM.
Compound `O=C(/C=C/c1ccc(Cl)c(Cl)c1)NCCCCCN1CCC(NC(=O)Nc2cc(F)cc(F)c2)CC1` yielded an IC50 of 790 nM.
For `CCOC(=O)Nc1cc(-c2csc(N=C(N)N)n2)cc([N+](=O)[O-])c1` the value was 820 nM.
For `COc1cccc(C=NNc2cc(C)nc3c(OC)cccc23)c1` the value was 580 nM; for `COc1ccc2nccc([C@@H](O)CN3CCC(NCc4cc5ccc(C#N)cc5[nH]4)CC3)c2c1`, 100 nM; for `O=C(Nc1cccc(-c2ccc(-c3nc4ccc(F)cc4[nH]3)cc2)c1)c1ccoc1`, 960 nM.
In turn, `CC(C)(C)NCC(O)COc1ccc(Cl)cc1C1=NNC(=O)CC1` (configuration not stated) gave an IC50 of 150 nM.
For `Cc1cccc2[nH]c(-c3cccc(-c4ccc(NC(=O)c5cnn6cccnc56)cc4)c3)nc12` the value was 210 nM.
Regarding `CC1(C)N=C(N)N=C(N)N1OCCCO`, the IC50 came to 220 nM.
As to `CC(Cc1ccc([N+](=O)[O-])cc1)NCC(O)c1cccc(C(F)(F)F)c1` (configuration not stated), the 50% inhibitory concentration (IC50) worked out at 900 nM.
Take `CCCc1c(C(=O)NC2CCC(CN3CCC(c4c[nH]c5ccccc45)CC3)CC2)cnn1-c1ccc(Cl)cc1` (configuration not stated): the half-inhibitory concentration (IC50) is 760 nM.
The same measure for `OC1(Cc2ccccc2)CCN(Cc2cccc(-c3c[nH]c4nc(NC5CCCC5)ncc34)c2)CC1`: 930 nM; for `CCC(C)c1ccc(NC(=O)C(C)c2ccc([N+](=O)[O-])cc2)cc1` (configuration not stated): 180 nM.
Compound `CS(=O)(=O)CCNCc1cccc(-c2ccc3c(Nc4cc(O)c(Cl)cc4F)ccnc3c2)c1` registered an IC50 of 250 nM.
Turning to `Cc1cnc(NCC2CCCCC2)nc1NCC(=O)Nc1ccccc1`, the IC50 is 710 nM.
For the compound `Cc1cc(N2CCCC2)nc(Nc2ccc(NC(=O)C(C)C)cc2)n1`, the half-inhibitory concentration (IC50) turned out to be 1100 nM.
For `O=C(Nc1ccc(C(=O)N(Cc2ccc3c(c2)OCO3)C2CCCC2)cc1)c1cccs1` the value was 650 nM.
On to `O=C(NCc1cccc(C(F)(F)F)c1)[C@@H]1CCCN1C(=O)c1ccc(O)c(-c2ccc(Cl)c(Cl)c2)c1`, for which the IC50 was determined as 790 nM.
The compound `Cn1c(Nc2cc(C(C)(C)C)on2)nc2cc(Nc3ccnc(Nc4ccc(CS(C)(=O)=O)cc4)n3)ccc21` returned a half-inhibitory concentration (IC50) of 980 nM.
Compound `CCN(CC)C(=O)C(=O)c1c[nH]c2ccc(Cl)cc12` came in with an IC50 of 80 nM.
The same measure for `O=C(NC(c1ccc(Cl)cc1)c1ccc2cccnc2c1O)c1ccccc1` (configuration not stated): 560 nM; for `Cc1sc(C)c(C(F)(F)F)c1CNCCCNc1cc(=O)c2ccccc2[nH]1`: 1100 nM.
In turn, `COc1ccc(Nc2ccnc3cc(-c4ccccn4)ccc23)cc1OC` had an IC50 of 30 nM.
In the case of `O=C(/C=C/c1ccc(Cl)c(Cl)c1)NCc1ccc(CN2CCC(c3c[nH]c4ccccc34)CC2)cc1`, the IC50 turned out to be 710 nM.
As to `CO/C(=C\C=C\c1cc2cc(Cl)c(Cl)cc2[nH]1)C(=O)NCCCN1CC(C)N(C)CC1C` (configuration not stated), the IC50 turned out to be 1130 nM.
`CCCC(C)N(Cc1ccc(C(C)(C)C)cc1)C(=O)c1ccc(OC)cc1` (configuration not stated): the IC50 was 110 nM.
For `CCc1c[nH]c2c(N3CCCS3(=O)=O)cc(C(=O)N[C@@H](Cc3ccccc3)[C@H](O)CNC(C)(C)CCCC(C)C)cc12`, the 50% inhibitory concentration (IC50) was found to be 670 nM.
For the compound `NC1=NC2(CCCCC2)N(OCC2CCCCC2)C(N)=N1`, the IC50 came to 150 nM.
`O=C(Nc1ccc(-c2cccc(-c3nc4ccccc4[nH]3)c2)cc1)c1cnn2cccnc12` had an IC50 of 600 nM.
The compound `O=[N+]([O-])c1cccc(CNCC2CCN(CC3CCCCC3)CC2)c1` registered an IC50 of 1290 nM.
In turn, `COc1cccc2cc(C(=O)N[C@@H](CC(C)C)C(=O)N[C@H](/C=N/N3C(=O)CN(Cc4ccccc4)C3=O)CCc3ccccc3)oc12` yielded an IC50 of 620 nM.
For the compound `COc1nc(NCC(C)C)nc(Oc2ccc(=O)n(Cc3ccccc3)n2)n1`, the half-inhibitory concentration (IC50) was found to be 630 nM.
On to `Cc1ccc(CN2CCC(Oc3cccc(NC(=O)c4ccc(C(F)(F)F)cc4)c3)CC2)cc1`, for which the IC50 was 1020 nM.
Regarding `CC(C)c1ccc(CN2CCC(NC(=O)c3ccc(-c4cccc(Cl)c4)s3)CC2)cc1`, the IC50 came out at 1430 nM.
As to `CCn1c(-c2cc(C)on2)nc2cnc(Oc3ccc(C(=O)N4CC(=O)N(C)C4C(C)(C)C)cc3)cc21` (configuration not stated), the IC50 came to 1820 nM.
The compound `CCC(NC(=O)c1ccccc1NC(=O)c1ccc(C)cc1)C(=O)OC` (configuration not stated) gave an IC50 of 760 nM.
For `CC(C)Cn1ccc2c3c(N)nc(N)nc3ccc21` the value was 30 nM.
The same measure for `CCC(=O)NC(c1ccco1)c1cc(Cl)c2cccnc2c1O` (configuration not stated): 870 nM.
On to `Cc1cc(N[C@@H](Cc2ccccc2)C(=O)NCCOc2ccccc2)nc(Nc2ccccc2)n1`, for which the IC50 came to 870 nM.
`CCOC(=O)c1c(SCc2cccc(F)c2F)[nH]c2ccccc2c1=O`: the IC50 is 640 nM.
Consider `CCNC(=O)Nc1cccc(-c2ccc(-c3nc4c(C)cccc4[nH]3)s2)c1`, for which the IC50 stood at 770 nM.
